For 33 molecules, IC50 results are on record in patent US4204063A, “N(Aminoalkyl)-naphthalimides and their derivatives” (priority 1977, dated 1980).

In this assay the test system is He-La cells. Briefly: cytotoxic activity on He-La cells (inhibition of cellular growth, protein determination). It counts as cell-based. The conditions noted are these: Homo sapiens, HeLa, read-out: ID50 (inhibitory dose 50, dose which inhibits cellular growth by 50%). On the procedure:
Testing commences using a culture having approximately 125,000 cells per milliliter. They are dispersed with trypsin and are maintained in suspension by stirring until the moment they are placed in tubes.
After 72 hours the results are read.

Where [1] appears, read: He-La cells, monolayer, 72 hours, protein determination (modified Lowry).

Molecules are shown by their SMILES. ≈ marks a conversion by molar mass, not a printed value. Where two headings read alike, the source gives them in different places.

For the molecule `CN(C)CCCN1C(=O)c2cccc3cc([N+](=O)[O-])cc(c23)C1=O` [Example 1, N-(3-dimethylaminopropyl)-3-nitro-1,8-naphthalimide], under setting [1], the IC50 amounted to 1 µg/mL (≈ 3.05 µM).

As for `CCN(CC)CCCN1C(=O)c2cccc3cc([N+](=O)[O-])cc(c23)C1=O` [Example 2, N-(3-diethylaminopropyl)-3-nitro-1,8-naphthalimide], under setting [1], the IC50 amounted to 5 µg/mL (≈ 14.1 µM).

As for `O=C1c2cccc3cc([N+](=O)[O-])cc(c23)C(=O)N1CCN1CCOCC1` [Example 3, N-2-(N-morpholino)-ethyl-3-nitro-1,8-naphthalimide], the IC50 under setting [1] was determined as 20 µg/mL (≈ 56.3 µM).

Consider `CCN1CCCC(N2C(=O)c3cccc4cc([N+](=O)[O-])cc(c34)C2=O)C1` (stereo not drawn) [Example 4, N-3-(1-ethylpiperidino)-3-nitro-1,8-naphthalimide], for which the IC50 under setting [1] worked out at 6 µg/mL (≈ 17 µM).

As for `CN1CCN(CCCN2C(=O)c3cccc4cc([N+](=O)[O-])cc(c34)C2=O)CC1` [Example 5, N-3-(4-methyl-1-piperazino)-propyl-3-nitro-1,8-naphthalimide], under setting [1], the IC50 is 2 µg/mL (≈ 5.23 µM).

In the case of `CN(C)N1C(=O)c2cccc3cc([N+](=O)[O-])cc(c23)C1=O` [Example 6, N-dimethylamino-3-nitro-1,8-naphthalimide], the IC50 under setting [1] was > 100 µg/mL.

Turning to `O=C1c2cccc3cc([N+](=O)[O-])cc(c23)C(=O)N1N1CCCC1` [Example 7, N-(1-pyrrolidino)-3-nitro-1,8-naphthalimide], the IC50 under setting [1] was > 100 µg/mL.

Turning to `NC(=O)NN1C(=O)c2cccc3cc([N+](=O)[O-])cc(c23)C1=O` [Example 8, N-ureyl-3-nitro-1,8-naphthalimide], under setting [1], the IC50 was > 100 µg/mL.

As to `CN(C)CCN1C(=O)c2cccc3cc(N)cc(c23)C1=O` [Example 9], the IC50 under setting [1] turned out to be 2.5 µg/mL (≈ 8.82 µM).

`CCN(CC)CCN1C(=O)c2cccc3cc(N)cc(c23)C1=O` [Example 10, N-(2-diethylaminoethyl)-3-amino-1,8-naphthalimide]: under setting [1], the IC50 was 3 µg/mL (≈ 9.63 µM).

Take `Nc1cc2c3c(cccc3c1)C(=O)N(CCN1CCCC1)C2=O` [Example 11, N-[2-(1-pyrrolidino)-ethyl]-3-amino-1,8-naphthalimide]: the IC50 (72 h) worked out at 1.5 µg/mL (≈ 4.85 µM).

For the molecule `Nc1cc2c3c(cccc3c1)C(=O)N(CCN1CCCCC1)C2=O` [Example 12, N-[2-(1-piperidino)-ethyl]-3-amino-1,8-naphthalimide], the IC50 under setting [1] turned out to be 8 µg/mL (≈ 24.7 µM).

`Nc1cc2c3c(cccc3c1)C(=O)N(CCN1CCOCC1)C2=O` [Example 13, N-[2-(1-morpholino)-ethyl]-3-amino-1,8-naphthalimide]: under setting [1], the IC50 worked out at 10 µg/mL (≈ 30.7 µM).

For `CN(C)CCCN1C(=O)c2cccc3cc(N)cc(c23)C1=O` [Example 14, N-(3-dimethylaminopropyl)-3-amino-1,8-naphthalimide], under setting [1], the IC50 turned out to be 5 µg/mL (≈ 16.8 µM).

For the molecule `CCN(CC)CCCN1C(=O)c2cccc3cc(N)cc(c23)C1=O` [Example 15, N-(3-diethylaminopropyl)-3-amino-1,8-naphthalimide], the IC50 under setting [1] was found to be 25 µg/mL (≈ 76.8 µM).

Turning to `CN1CCN(CCCN2C(=O)c3cccc4cc(N)cc(c34)C2=O)CC1` [Example 16, N-[3-(4-methyl-1-piperazino)-propyl]-3-amino-1,8-naphthalimide], the IC50 under setting [1] was found to be 10 µg/mL (≈ 28.4 µM).

`CN(C)N1C(=O)c2cccc3cc(N)cc(c23)C1=O` [Example 17, N-dimethylamino-3-amino-1,8-naphthalimide]: the IC50 under setting [1] stood at 100 µg/mL (≈ 392 µM).

For `CN(C)CCN1C(=O)c2cccc3cc(Cl)cc(c23)C1=O` [Example 18, N-(2-dimethylaminoethyl)-3-chloro-1,8-naphthalimide], the IC50 under setting [1] worked out at 0.8 µg/mL (≈ 2.64 µM).

`O=C1c2cccc3cc(Cl)cc(c23)C(=O)N1CCN1CCCC1` [Example 19, N-[2-(1-pyrrolidino)-ethyl]-3-chloro-1,8-naphthalimide]: under setting [1], the IC50 came out at 1.5 µg/mL (≈ 4.56 µM).

As for `O=C1c2cccc3cc(Cl)cc(c23)C(=O)N1CCN1CCCCC1` [Example 20, N-[2-(1-piperidino)-ethyl]-3-chloro-1,8-naphthalimide], the IC50 under setting [1] was 3.5 µg/mL (≈ 10.2 µM).

`O=C1c2cccc3cc(Cl)cc(c23)C(=O)N1CCN1CCOCC1` [Example 21, N-[2-(1-morpholino)-ethyl]-3-chloro-1,8-naphthalimide]: the IC50 under setting [1] was determined as 100 µg/mL (≈ 290 µM).

As for `CN(C)CCCN1C(=O)c2cccc3cc(Cl)cc(c23)C1=O` [Example 22, N-(3-dimethylaminopropyl)-3-chloro-1,8-naphthalimide], the IC50 under setting [1] worked out at 2 µg/mL (≈ 6.31 µM).

In the case of `CN(C)CCN1C(=O)c2cccc3cc(O)cc(c23)C1=O` [Example 23, N-(2-dimethylaminoethyl)-3-hydroxy-1,8-naphthalimide], under setting [1], the IC50 is 3 µg/mL (≈ 10.6 µM).

On to `O=C1c2cccc3cc(O)cc(c23)C(=O)N1CCN1CCCC1` [Example 24, N-[2-(1-pyrrolidino)-ethyl]-3-hydroxy-1,8-naphthalimide], for which the IC50 under setting [1] worked out at 3.5 µg/mL (≈ 11.3 µM).

On to `O=C1c2cccc3cc(O)cc(c23)C(=O)N1CCN1CCOCC1` [Example 25, N-[2-(1-morpholino)-ethyl]-3-hydroxy-1,8-naphthalimide], for which the IC50 under setting [1] came to 100 µg/mL (≈ 306 µM).

As for `COc1cc2c3c(cccc3c1)C(=O)N(CCN(C)C)C2=O` [Example 26, N-(2-dimethylaminoethyl)-3-methoxy-1,8-naphthalimide], the IC50 under setting [1] was determined as 1.5 µg/mL (≈ 5.03 µM).

For the molecule `COc1cc2c3c(cccc3c1)C(=O)N(CCN1CCCC1)C2=O` [Example 27, N-[2-(1-pyrrolidino)-ethyl]-3-methoxy-1,8-naphthalimide], under setting [1], the IC50 worked out at 0.75 µg/mL (≈ 2.31 µM).

In the case of `CCOC(=O)Nc1cc2c3c(cccc3c1)C(=O)N(CCN(C)C)C2=O` [Example 28, N-(dimethylaminoethyl)-3-ethoxycarbonylamino-1,8-naphthalimide], the IC50 under setting [1] was 10 µg/mL (≈ 28.1 µM).

For `CCOC(=O)Nc1cc2c3c(cccc3c1)C(=O)N(CCN1CCCC1)C2=O` [Example 29, N-[2-(1-pyrrolidino)-ethyl]-3-ethoxycarbonylamino-1,8-naphthalimide], the IC50 under setting [1] is 10 µg/mL (≈ 26.2 µM).

Regarding `CC(=O)Nc1cc2c3c(cccc3c1)C(=O)N(CCN(C)C)C2=O` [Example 30, N-(2-dimethylaminoethyl)-3-acetylamino-1,8-naphthalimide], the IC50 under setting [1] stood at 4 µg/mL (≈ 12.3 µM).

With `CC(=O)Nc1cc2c3c(cccc3c1)C(=O)N(CCN1CCCC1)C2=O` [Example 31, N-[2-(1-pyrrolidino)-ethyl]-3-acetylamino-1,8-naphthalimide], the IC50 under setting [1] was found to be 5 µg/mL (≈ 14.2 µM).

Regarding `O=C1c2cccc3cc(S(=O)(=O)O)cc(c23)C(=O)N1CCN1CCCC1` [Example 32, N-[2-(1-pyrrolidino)ethyl]-3-sulfo-1,8-naphthalimide], the IC50 under setting [1] was > 100 µg/mL.

Turning to `CN(C)CCN1C(=O)c2cccc3cc(C(C)(C)C)cc(c23)C1=O` [Example 33, N-(2-dimethylaminoethyl)-3-tert-butyl-1,8-naphthalimide], the IC50 under setting [1] turned out to be 14 µg/mL (≈ 43.2 µM).
